From US8575197B2, “Pyrolinone derivative and pharmaceutical composition comprising the same” (Shionogi & Co., Ltd., priority 2008, dated 2013)
pIC50: −log10 of the molar value.

Target: human P2X3 receptor (Homo sapiens (Human), UniProt P56373)
Experiment: P2X3 receptor inhibition, ATP-evoked Fluo-3 calcium fluorescence (FDSS 3000)
Assay type: cell-based
Conditions: C6BU-1 cell transfected with human P2X3 receptor gene; ATP-evoked Fluo-3 fluorescence
Outline: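 C6BU-1 cells stably transfected with human P2X3, loaded with 4 μM Fluo-3-AM for 1 h at 37 °C in HEPES buffer pH 7.5 with probenecid. Compound added 5 min before 40 nM ATP solution; fluorescence followed 3 min. IC50 from ratio of peak post-ATP to baseline fluorescence.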

human P2X3 receptor, sequence (P56373 whole entry): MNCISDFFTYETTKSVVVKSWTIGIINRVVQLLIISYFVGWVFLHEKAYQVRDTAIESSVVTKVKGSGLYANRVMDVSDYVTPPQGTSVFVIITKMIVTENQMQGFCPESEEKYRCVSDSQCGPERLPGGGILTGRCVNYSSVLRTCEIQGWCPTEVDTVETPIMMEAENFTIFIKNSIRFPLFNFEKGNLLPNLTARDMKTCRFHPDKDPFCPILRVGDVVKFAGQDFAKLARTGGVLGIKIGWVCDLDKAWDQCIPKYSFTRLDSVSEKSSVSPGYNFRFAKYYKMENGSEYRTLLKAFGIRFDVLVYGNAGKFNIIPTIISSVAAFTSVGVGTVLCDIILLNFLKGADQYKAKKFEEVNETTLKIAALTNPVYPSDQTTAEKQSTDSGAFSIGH

| SMILES | pIC50 |
| --- | --- |
| Cc1nc(-c2ccc(N3C(=O)C(O)=C(C(=O)C(C)C)C3c3ccccc3OC(F)F)cc2)no1 (centres unmarked) [Compound I-313] | 6.49 |
| COCCOc1ccccc1C1C(C(=O)C(C)(C)C)=C(O)C(=O)N1c1ccc(-c2ccoc2)cc1 (centres unmarked) [Compound I-156] | 7.49 |
| Cc1ccc(-c2ccc(N3C(=O)C(O)=C(C(=O)C(C)C)C3c3cccnc3OC(C)C)cc2)o1 (centres unmarked) [Compound I-479] | 8.00 |
| COc1ccccc1C1c2c(C(C)(C)C)n[nH]c2C(=O)N1c1ccc(-c2ccccc2)cc1 (centres unmarked) [II-208] | 6.95 |
| COCCOc1cc(F)ccc1C1C(C(=O)C(C)C)=C(O)C(=O)N1c1ccc(-c2ccoc2)cc1 (centres unmarked) [Compound I-367] | 7.72 |
| COCCOc1ccccc1C1C(C(=O)C(C)C)=C(O)C(=O)N1c1ccc(-c2ccco2)cc1 (centres unmarked) [Compound I-231] | 7.64 |
| COc1ncccc1C1C(C(=O)CC(C)C)=C(O)C(=O)N1c1ccc(-c2csc(C)c2)cc1 (centres unmarked) [Compound I-371] | 6.35 |
| COc1ccccc1C1c2c(C(C)(C)C(=O)O)n[nH]c2C(=O)N1c1ccc(-c2cccs2)cc1 (centres unmarked) [II-163] | 7.47 |
| COCCCOc1ncccc1C1C(C(=O)C(C)C)=C(O)C(=O)N1c1ccc(-c2ccc(C)o2)cc1 (centres unmarked) [Compound I-471] | 7.72 |
| CSc1ccccc1C1C(C(=O)C(C)C)=C(O)C(=O)N1c1ccc(-c2ccsc2)cc1 (centres unmarked) [Compound I-558] | 8.10 |
| CC(C)(C)c1n[nH]c2c1C(c1ccccc1S(C)(=O)=O)N(c1ccc(-c3ccon3)cc1)C2=O (centres unmarked) [II-112] | 6.41 |
| CO/N=C(/C)c1ccc(N2C(=O)c3[nH]nc(C(C)(C)C)c3C2c2ccccc2OC)cc1 (centres unmarked) [II-156] | 6.39 |
| COc1ccccc1C1C(C(=O)CC(C)C)=C(O)C(=O)N1c1ccc(-c2cscn2)cc1 (centres unmarked) [Compound I-420] | 6.59 |
| Cc1cc(-c2ccc(N3C(=O)C(O)=C(C(=O)C(C)C)C3c3ccccc3OC(C)C)cc2)cs1 (centres unmarked) [Compound I-419] | 7.49 |
| COc1ncccc1C1c2c(C(C)(C)C)n[nH]c2C(=O)N1c1ccc(-c2cc(C)no2)cc1 (centres unmarked) [II-191] | 6.49 |
| CC(C)C(=O)C1=C(O)C(=O)N(c2ccc(-c3ccsc3)cc2)C1c1cccnc1OCC(=O)O (centres unmarked) [Compound I-195] | 6.63 |
| COc1ccccc1C1C(C(=O)C2(CO)CCCCC2)=C(O)C(=O)N1c1ccc(-c2ccon2)cc1 (centres unmarked) [Compound I-031] | 6.15 |
| COCc1ccccc1C1C(C(=O)C(C)C)=C(O)C(=O)N1c1ccc(-c2cc(C)on2)cc1 (centres unmarked) [Compound I-458] | 6.16 |
| COCCOc1ccccc1C1C(C(=O)C(C)C)=C(O)C(=O)N1c1ccc(SC)cc1 (centres unmarked) [Compound I-475] | 6.74 |
| CNC(=O)c1ncccc1C1C(C(=O)CC(C)C)=C(O)C(=O)N1c1ccc(-c2ccc(C)s2)cc1 (centres unmarked) [Compound I-573] | 6.91 |
| Cc1ccc(-c2ccc(N3C(=O)C(O)=C(C(=O)CC(C)C)C3c3cccnc3C(=O)OC(C)C)cc2)s1 (centres unmarked) [Compound I-504] | 6.62 |
| COC(=O)c1cc(N2C(=O)c3[nH]nc(C(C)C)c3C2c2ccccc2OC)ccc1-c1ccsc1 (centres unmarked) [II-241] | 6.67 |
| COc1ccccc1C1c2c(C(C)(C)CO)n[nH]c2C(=O)N1c1ccc(-c2ccoc2)cc1 (centres unmarked) [II-219] | 7.85 |
| COCCOc1ccccc1C1c2c(C(C)(C)C)n[nH]c2C(=O)N1c1ccc(-c2ccon2)cc1 (centres unmarked) [II-018] | 7.66 |
| COc1ccc(C(=O)C2=C(O)C(=O)N(c3ccc(-c4nccs4)cc3)C2c2ccccc2OC)cc1 (centres unmarked) [Compound I-029] | 6.80 |
| CC(C)C(=O)C1=C(O)C(=O)N(c2ccc(-c3ccsc3)cc2)C1c1ccccc1OCC1OCCO1 (centres unmarked) [Compound I-551] | 8.30 |
| COc1ccccc1C1C(C(=O)C(C)(C)C)=C(O)C(=O)N1c1ccc(-c2csc(C)c2)cc1 (centres unmarked) [Compound I-197] | 7.44 |
| COCCNC(=O)c1ncccc1C1C(C(=O)CC(C)C)=C(O)C(=O)N1c1ccc(-c2ccc(C)s2)cc1 (centres unmarked) [Compound I-581] | 6.33 |
| Cc1nc(-c2ccc(N3C(=O)C(O)=C(C(=O)C(C)C)C3c3ccccc3OC3CCOCC3)cc2)no1 (centres unmarked) [Compound I-502] | 7.17 |
